Data taken from PubChem BioAssay (NCI).
Where “and” joins values, the source holds several entries; their conditions need not be identical. Equal entries are not always repeated.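 Following 48 hours of exposure in 96-well plates, responses at five concentrations were used to interpolate endpoints linearly. GI50 is the concentration that inhibits growth by half. Definition used: TGI = concentration required for complete inhibition of growth.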

Legend:
Experiment in all cases: NCI-60 cell line screen, 48 h
RPMI-8226 leukemia = tested on: RPMI-8226 leukemia
DLD-1 colon = tested on: DLD-1 colon
DMS 273 small cell lung = tested on: DMS 273 small cell lung
OVCAR-5 ovarian = tested on: OVCAR-5 ovarian
SF-268 CNS = tested on: SF-268 CNS
HOP-62 NSCLC = tested on: HOP-62 NSCLC
KM12 colon = tested on: KM12 colon
M19-MEL melanoma = tested on: M19-MEL melanoma
CAKI-1 renal = tested on: CAKI-1 renal
KM20L2 colon = tested on: KM20L2 colon
MDA-MB-435 = tested on: MDA-MB-435
OVCAR-3 ovarian = tested on: OVCAR-3 ovarian

Structure (SMILES)	TGI (RPMI-8226 leukemia) [µM]	TGI (DLD-1 colon) [µM]	TGI (DMS 273 small cell lung) [µM]	TGI (OVCAR-5 ovarian) [µM]	TGI (SF-268 CNS)	TGI (HOP-62 NSCLC)	TGI (KM12 colon) [µM]	TGI (M19-MEL melanoma) [µM]	TGI (CAKI-1 renal)	TGI (KM20L2 colon) [µM]	TGI (MDA-MB-435) [µM]	TGI (OVCAR-3 ovarian)	GI50 (RPMI-8226 leukemia) [µM]	GI50 (OVCAR-5 ovarian) [µM]	GI50 (SF-268 CNS)	GI50 (HOP-62 NSCLC)	GI50 (KM12 colon) [µM]	GI50 (CAKI-1 renal)	GI50 (MDA-MB-435) [µM]	GI50 (OVCAR-3 ovarian)
COC(=O)c1nn(C(=N)c2ccc(Cl)cc2)c2c1CCCCC2	> 100	> 100	> 100	> 100	> 100 µM	> 100 µM	> 100	> 100	> 100 µM	> 100	–	–	–	–	–	–	–	–	–	–
O=C(Nc1ccccc1C(=O)Nc1nccs1)c1ccccc1	> 100	–	–	> 100	60.9 µM	> 100 µM	> 100	–	> 100 µM	–	> 100	36.6 µM	–	–	–	–	–	–	–	–
[N-]=[N+]=Nc1c(Br)c(=O)[nH]c(=O)n1COCCO	–	> 100	> 100	> 100	> 100 µM	> 100 µM	> 100	> 100	> 100 µM	–	–	> 100 µM	–	–	–	–	–	–	–	–
C=C1C[C@@H]2[C@H](CC[C@]3(C)C(=O)CC[C@@H]23)[C@@]2(C)C=CC(=O)C=C12	> 56.6	–	–	> 100	> 100 µM	> 83.1 µM	> 70	–	> 100 µM	–	> 81.5	> 66.3 µM	19.7	37.3	57.1 µM	35.2 µM	30.7	> 55.9 µM	26.3	26.5 µM
CC1(C)N=C(N)N=C(N)N1c1ccc(OCCCCNC(=O)c2ccc(S(=O)(=O)F)cc2)c(Cl)c1	> 100	–	–	> 100	> 100 µM	> 100 µM	> 100	–	> 100 µM	–	> 100	> 100 µM	6.39	> 100	6.21 µM	68.3 µM	8.04	43.8 µM	4.87	50.4 µM
COc1cc(/C=C/c2cc(/C=C/c3ccc(O)c(OC)c3)[nH]c(=O)n2)ccc1O	5.68	–	–	28.4	> 100 µM	17.6 µM	14.2	–	> 100 µM	–	18.2	33.5 µM	2.1	10	4.58 µM	4.11 µM	3.44	3.38 µM	2.72	3.8 µM
Cc1[nH]n(-c2ccccc2)c(=O)c1C(=O)c1ccccc1	> 25	–	–	> 25	> 25 µM	> 25 µM	> 25	–	> 25 µM	–	> 25	> 25 µM	> 25	> 25	> 25 µM	> 25 µM	11.7	> 25 µM	> 25	> 25 µM
O=c1[nH]cnc2nc(-c3ccc(N(CCCl)CCCl)cc3)[nH]c12	> 100	–	–	> 100	> 100 µM	63.8 µM	> 100	–	> 100 µM	–	> 100	79.6 µM	> 100	30.1	28.6 µM	10.7 µM	70.3	4.25 µM	3.21	22.8 µM
CNC(C)Cc1ccc(O)cc1 (stereo unspecified)	> 100	> 100	> 100	> 100	> 100 µM	> 100 µM	> 100	–	> 100 µM	> 100	–	> 100 µM	–	–	–	–	–	–	–	–
C[C@H]1CC2=CC(=O)CC[C@]2(C)[C@H]2CC[C@@]3(C)[C@@H](CC[C@]3(C)O)[C@H]12	38	–	–	> 100	> 100 µM	> 76.1 µM	> 75.4	–	77.2 µM	–	> 88	> 91.8 µM	7.58	55.9	33.3 µM	33.5 µM	27.5	24 µM	29.3	33.9 µM
COc1ccc(/C=C/c2cnc3ccccc3n2)cc1OC	> 100	–	–	> 100	> 100 µM	> 100 µM	> 100	–	> 100 µM	–	> 100	> 100 µM	–	–	–	–	–	–	–	–
COc1cc(CC2CC(c3ccc4c(c3)OCO4)OC2=O)cc(OC)c1OC (stereo unspecified)	> 100	–	–	> 100	> 100 µM	> 100 µM	> 100	–	> 100 µM	–	> 100	> 100 µM	–	–	–	–	–	–	–	–
COC(=O)C12C3C4C1C1C2C3C41C(=O)N(C(C)C)C(C)C (stereo unspecified)	–	> 100	> 100	> 100	> 100 µM	> 100 µM	> 100	> 100	–	> 100	–	> 100 µM	–	–	–	–	–	–	–	–
N#Cc1ccc2c(c1)C(=O)c1c-2n(CCCN=[N+]=[N-])c(=O)c2cc([N+](=O)[O-])ccc12	> 50	–	–	> 50	> 50 µM	> 50 µM	> 50	–	> 50 µM	–	> 50	> 50 µM	21.3	> 50	5.03 µM	15 µM	> 50	9.86 µM	> 50	> 50 µM
CS(=O)(=O)Nc1cc(-c2ccc3ncnc(Nc4cccc(Cl)c4F)c3c2)cnc1Cl	6.11	–	–	19.1	19.3 µM	60.7 µM	16.5	–	12.6 µM	–	21.9	7.52 µM	2.21	2.17	1.41 µM	2.48 µM	4.32	1.82 µM	4.73	1.84 µM
CC(C)(F)C[C@H](N[C@@H](c1ccc(-c2ccc(S(C)(=O)=O)cc2)cc1)C(F)(F)F)C(=O)NC1(C#N)CC1	> 100	–	–	> 100	55 µM and 48.9 µM	40.7 µM and 53.5 µM	> 100	–	55 µM and > 100 µM	–	> 100	> 55 µM and 47.9 µM	> 100	> 100	22 µM and 18.8 µM	12.2 µM and 22.6 µM	> 100	18.7 µM and 27.4 µM	> 100	> 55 µM and 19.9 µM
COC(=O)C1=C(c2cc(OC)c(OC)c(OC)c2)O[C@H](c2ccc3c(c2)OCO3)[C@H]1COC(C)=O	> 100	> 100	> 100	> 100	–	> 100 µM	> 100	> 100	> 100 µM	> 100	–	> 100 µM	–	–	–	–	–	–	–	–
